From patent publication US20140357577A1, “HIV Membrane Fusion Inhibitors” (priority 2011, published 2014)
Starred links: 1 amine or outer side, 2 acyl side, 3 side chain; linkers in the order of their positions; H or OH if unused. *: point of attachment. cholesteryl‑oxycarbonylmethyl = CC(C)CCC[C@@H](C)[C@H]1CC[C@H]2[C@@H]3CC=C4C[C@@H](OC(=O)C*)CC[C@]4(C)[C@H]3CC[C@]12C; Palmitoyl = CCCCCCCCCCCCCCCC(=O)*; Suc = O=C(CCC(=O)[*:2])[*:1]; Pentanoyl = CCCCC(=O)*

Columns and labels:
[1] = system: HIV wild type virus strain IIIB; assay: Standard Anti-Viral-Experiment (AVE), HIV-1 replication assay in MT4-LTR-EGFP cells, wild type IIIB; assay type: cell-based; conditions: 3 days, EGFP signal
Text: (§1) • Standard Anti-Viral-Experiment “AVE” (wild type HIV strain IIIB+HIV strain HXB2D side directed mutants V38A and Q40H)
(§2) The HIV-1 replication assay measures virus replication (HIV wild type virus strain 111B or HXB2D, or a HIV mutant virus strain HXB2D with mutation V38A or Q40H in the gp41 gene) as an induction of enhanced green fluorescent protein (EGFP) expression. The indicator MT4-LTR-EGFP cells contain an EGFP gene under the control of the HIV-1 LTR promoter sequence. Successful HIV-1 infection results in viral Tat protein expression and subsequent induction of EGFP expression. Compounds/peptides inhibiting HIV-1 infection are expected to reduce EGFP expression as compared to the untreated HIV-infected control.
(§3) Serial 4-fold dilutions of test compounds/peptides were mixed with HIV-1 (IIIB, HXB2D, or a HXB2D mutant virus (V38A or Q40H)) and MT4-LTR-EGFP cells and incubated at 37° C. After 3 days, the wells were examined for EGFP expression using an argon laser-scanning microscope. The effective compound/peptide concentration inhibiting 50% of the virus-induced EGFP signal (EC50) was determined by linear interpolation of the EGFP signal vs. logarithm of the compound concentration; (T20, C34 and Sifuvirtide were added as reference compounds). For the V38A and Q40H mutant viruses, results were reported as a fold change in EC50, as compared with a drug-susceptible wild type strain HXB2D, which forms the backbone of the mutant virus. • Standard AVE (50% Human Serum)

[2] = system: HIV mutant virus strain HXB2D with mutation Q40H in the gp41 gene; assay: Standard AVE, HXB2D site directed mutant Q40H; assay type: cell-based, HIV-1; conditions: fold change vs wild type strain HXB2D
Text: as §1, §2, §3

HIV-IIIB + 50% HS = assay: Standard AVE (50% Human Serum), HIV-1 replication assay in MT4-LTR-EGFP cells; assay type: cell-based; conditions: fold change vs EC50 in the assay without human serum
Text: The HIV-1 replication assay (with 50% human serum) measures virus replication as an induction of enhanced green fluorescent protein (EGFP) expression, in the presence of 50% human serum. The indicator MT4-LTR-EGFP cells contain an EGFP gene under the control of the HIV-1 LTR promoter sequence. Successful HIV-1 infection results in viral Tat protein expression and subsequent induction of EGFP expression. Compounds/peptides inhibiting HIV-1 infection are expected to reduce EGFP expression as compared to the untreated HIV-infected control. Compounds/peptides binding to human serum are expected to have a reduced activity for inhibiting the virus in the assay.
Serial 4-fold dilutions of test compounds/peptides were mixed with HIV-1 and MT4-LTR-EGFP cells and incubated at 37° C., in the presence of 50% human serum. After 3 days, the wells were examined for EGFP expression using an argon laser-scanning microscope. The effective compound/peptide concentration inhibiting 50% of the virus-induced EGFP signal (EC50) was determined by linear interpolation of the EGFP signal vs. logarithm of the compound concentration; T20, C34 and Sifuvirtide were added as reference compounds. Results were reported as a fold change in EC50, as compared with the acquired EC50 in the assay without human serum.

| Substance | EC50 [1] [nM] | HIV-HXB2D Q40H mutant (fold change in EC50) [2] | HIV-IIIB + 50% HS (Fold change in EC50) (HIV-IIIB + 50% HS) |
| --- | --- | --- | --- |
| Suc-ANYLALIEALIRAAQEQQEKNEAALRGSGC(cholesteryl-oxycarbonylmethyl)-NH2 (Suc-ANYLALIEALIRAAQEQQEKNEAALRGSGC(cholesteryl‑oxycarbonylmethyl)-NH2; SMILES CC[C@H](C)[C@H](NC(=O)[C@H](CC(C)C)NC(=O)[C@H](C)NC(=O)[C@H](CCC(=O)O)NC(=O)[C@@H](NC(=O)[C@H](CC(C)C)NC(=O)[C@H](C)NC(=O)[C@H](CC(C)C)NC(=O)[C@H](Cc1ccc(O)cc1)NC(=O)[C@H](CC(N)=O)NC(=O)[C@H](C)NC(=O)CCC(=O)O)[C@@H](C)CC)C(=O)N[C@@H](CCCNC(=N)N)C(=O)N[C@@H](C)C(=O)N[C@@H](C)C(=O)N[C@@H](CCC(N)=O)C(=O)N[C@@H](CCC(=O)O)C(=O)N[C@@H](CCC(N)=O)C(=O)N[C@@H](CCC(N)=O)C(=O)N[C@@H](CCC(=O)O)C(=O)N[C@@H](CCCCN)C(=O)N[C@@H](CC(N)=O)C(=O)N[C@@H](CCC(=O)O)C(=O)N[C@@H](C)C(=O)N[C@@H](C)C(=O)N[C@@H](CC(C)C)C(=O)N[C@@H](CCCNC(=N)N)C(=O)NCC(=O)N[C@@H](CO)C(=O)NCC(=O)N[C@@H](CSCC(=O)O[C@H]1CC[C@@]2(C)C(=CC[C@H]3[C@@H]4CC[C@H]([C@H](C)CCCC(C)C)[C@@]4(C)CC[C@@H]32)C1)C(N)=O) [Peptide 35] | 0.3 | 24 | – |
| Suc-ENYLRLIEELIRKAQEQQEKNEAALRGSGK(palmitoyl)-NH2 (Suc-ENYLRLIEELIRKAQEQQEKNEAALRGSGK(Palmitoyl)-NH2; SMILES CCCCCCCCCCCCCCCC(=O)NCCCC[C@H](NC(=O)CNC(=O)[C@H](CO)NC(=O)CNC(=O)[C@H](CCCNC(=N)N)NC(=O)[C@H](CC(C)C)NC(=O)[C@H](C)NC(=O)[C@H](C)NC(=O)[C@H](CCC(=O)O)NC(=O)[C@H](CC(N)=O)NC(=O)[C@H](CCCCN)NC(=O)[C@H](CCC(=O)O)NC(=O)[C@H](CCC(N)=O)NC(=O)[C@H](CCC(N)=O)NC(=O)[C@H](CCC(=O)O)NC(=O)[C@H](CCC(N)=O)NC(=O)[C@H](C)NC(=O)[C@H](CCCCN)NC(=O)[C@H](CCCNC(=N)N)NC(=O)[C@@H](NC(=O)[C@H](CC(C)C)NC(=O)[C@H](CCC(=O)O)NC(=O)[C@H](CCC(=O)O)NC(=O)[C@@H](NC(=O)[C@H](CC(C)C)NC(=O)[C@H](CCCNC(=N)N)NC(=O)[C@H](CC(C)C)NC(=O)[C@H](Cc1ccc(O)cc1)NC(=O)[C@H](CC(N)=O)NC(=O)[C@H](CCC(=O)O)NC(=O)CCC(=O)O)[C@@H](C)CC)[C@@H](C)CC)C(N)=O) [Peptide 55] | 0.05 | – | 3 |
| Ac-ACYAACIEALIRAAQEQQEKNEAALR-NH2 [Peptide 65] | 17 | – | 1 |
| AC-ACYAACIEALIRAAREQQEKNEAALR-NH2 [Peptide 84] | 13 | – | 4 |
| Penlanoyl-ECYLACIEALIRAAQEQQEKNEAALR-NH2 (Pentanoyl-ECYLACIEALIRAAQEQQEKNEAALR-NH2; cysteine pairing not given here) [Peptide 39] | 7 | – | 5 |
| ANYLALIEALIRAAQEQQEKNEAALR [Peptide 6] | 5 | – | 0.7 |
| Ac-ACYFACIEALIRAAQEQQEKNEAALR-NH2 [Peptide 61] | 4 | – | 4 |
| Suc-ECYLACIEELIRKAQEQQEKNEAALR-NH2 (cysteine pairing not given here) [Peptide 90] | 1 | 65 | – |
| SWETWEREIENYTRQIYRILEESQEQQDRNERDLLE [Sifuvirtide, reference compound] | 2 | 2 | – |
| Ac-ACYLACIEALIRAAQEQQEKNEAALR-NH2 [Peptide 56] | 4 | – | 2 |
| Suc-ECYLRCIEELIRKAQEQQEKNEAALRGSGC(cholesteryl-oxycarbonylmethyl)-NH2 (Suc-ECYLRCIEELIRKAQEQQEKNEAALRGSGC(cholesteryl‑oxycarbonylmethyl)-NH2; cysteine pairing not given here) [Peptide 82] | 0.05 | – | 6 |
| Suc-ACYAACIEALIRAAQEQQEKNEAALR-NH2 (cysteine pairing not given here) [Peptide 67] | 8 | – | 0.8 |
| Ac-aCYAACIEALIRAAQEQQEKNEAALr-NH2 [Peptide 75] | 29 | – | 4 |
| Suc-ECYLRCIEELIRKAQEQQEKNEAALRGSGK(palmitoyl)-NH2 (Suc-ECYLRCIEELIRKAQEQQEKNEAALRGSGK(Palmitoyl)-NH2; cysteine pairing not given here) [Peptide 88] | 0.06 | – | 3 |
| Ac-ACYIACIEALIRAAQEQQEKNEAALR-NH2 [Peptide 58] | 4 | – | 6 |
| Suc-aNYLALIEALIRAAQEQQEKNEAALr-NH2 [Peptide 12] | 10 | – | 0.4 |
| ENYTRQIYRILEESQEQQDRNERDLL [Slfuvlrtlde-PBD, reference compound] | 36400 | – | 0.8 |
| Ac-ACYAACIEELIRKAQEQQEKNEAALR-NH2 [Peptide 72] | 15 | – | 0.6 |
| Suc-ANYLALIEALIRAAQEQQEKNEAAL-NH2 (SMILES CC[C@H](C)[C@H](NC(=O)[C@H](CC(C)C)NC(=O)[C@H](C)NC(=O)[C@H](CCC(=O)O)NC(=O)[C@@H](NC(=O)[C@H](CC(C)C)NC(=O)[C@H](C)NC(=O)[C@H](CC(C)C)NC(=O)[C@H](Cc1ccc(O)cc1)NC(=O)[C@H](CC(N)=O)NC(=O)[C@H](C)NC(=O)CCC(=O)O)[C@@H](C)CC)C(=O)N[C@@H](CCCNC(=N)N)C(=O)N[C@@H](C)C(=O)N[C@@H](C)C(=O)N[C@@H](CCC(N)=O)C(=O)N[C@@H](CCC(=O)O)C(=O)N[C@@H](CCC(N)=O)C(=O)N[C@@H](CCC(N)=O)C(=O)N[C@@H](CCC(=O)O)C(=O)N[C@@H](CCCCN)C(=O)N[C@@H](CC(N)=O)C(=O)N[C@@H](CCC(=O)O)C(=O)N[C@@H](C)C(=O)N[C@@H](C)C(=O)N[C@@H](CC(C)C)C(N)=O) [Peptide 1] | 4 | – | 0.4 |
| Suc-ENYLRLIEELIRKAQEQQEKNEAALRGSGC(cholesteryl-oxycarbonylmethyl)-NH2 (Suc-ENYLRLIEELIRKAQEQQEKNEAALRGSGC(cholesteryl‑oxycarbonylmethyl)-NH2; SMILES CC[C@H](C)[C@H](NC(=O)[C@H](CC(C)C)NC(=O)[C@H](CCC(=O)O)NC(=O)[C@H](CCC(=O)O)NC(=O)[C@@H](NC(=O)[C@H](CC(C)C)NC(=O)[C@H](CCCNC(=N)N)NC(=O)[C@H](CC(C)C)NC(=O)[C@H](Cc1ccc(O)cc1)NC(=O)[C@H](CC(N)=O)NC(=O)[C@H](CCC(=O)O)NC(=O)CCC(=O)O)[C@@H](C)CC)C(=O)N[C@@H](CCCNC(=N)N)C(=O)N[C@@H](CCCCN)C(=O)N[C@@H](C)C(=O)N[C@@H](CCC(N)=O)C(=O)N[C@@H](CCC(=O)O)C(=O)N[C@@H](CCC(N)=O)C(=O)N[C@@H](CCC(N)=O)C(=O)N[C@@H](CCC(=O)O)C(=O)N[C@@H](CCCCN)C(=O)N[C@@H](CC(N)=O)C(=O)N[C@@H](CCC(=O)O)C(=O)N[C@@H](C)C(=O)N[C@@H](C)C(=O)N[C@@H](CC(C)C)C(=O)N[C@@H](CCCNC(=N)N)C(=O)NCC(=O)N[C@@H](CO)C(=O)NCC(=O)N[C@@H](CSCC(=O)O[C@H]1CC[C@@]2(C)C(=CC[C@H]3[C@@H]4CC[C@H]([C@H](C)CCCC(C)C)[C@@]4(C)CC[C@@H]32)C1)C(N)=O) [Peptide 32] | 0.04 | – | 13 |
| Ac-ACYAACIDALIRAAQEQQEKNEAALR-NH2 [Peptide 70] | 23 | – | 1 |
| AC-ECYAACIEALIRAAQEQQEKNEAALR-NH2 [Peptide 74] | 53 | – | 0.9 |
| Ac-ACYAACIEALIRAAQEQQEKNEAALR-NH2 [Peptide 64] | 56 | – | 0.8 |
| Ac-ACYAACIEALIRKAQEQQEKNEAALR-NH2 [Peptide 71] | 8 | – | 1 |
